Values belong to the molecule of their own block, whether it stands above or below them.
Experiments:
[1] = assay type: in vitro ADME
Excerpt: A formulation with one enhancer, Trichoderma reesei hydrophobin HFBII (isolation see […]., Aro, […]. and […]. 1997, Differential expression of the vegetative and spore-bound hydrophobins of Tricoderma reesei, Cloning and characterization of the hfb2 gene. Eur. J. […] As ethanol is a potential solvent for substances poorly soluble in water and prevents from microbiological growth, a better or a similar permeability is desirable. […] With this caffeine-concentration the solution was nearly saturated. This was intended to achieve a faster steady state according to the highest concentration gradient possible. Phosphate buffered saline (PBS) was prepared with a pH of 7.4. Both pH and osmolality of PBS simulated in the Franz diffusion cell's acceptor chamber the physiological conditions of blood (a systemic buffer system). The water used for the formulations and PBS was freshly produced, double distilled and filtered. Healthy nails for the permeability experiments were obtained from the Institute of Anatomy of the University of Basel and from the Institute of Anatomy of the University of Freiburg, Germany. […] The concentrations of the samples were measured with UV-spectrophotometry. Flux and permeation coefficients were calculated with the values after 48 hours, as in this time a steady state was obtained.

[2] = Nail penetration study with Terbinafine (example 1a); assay type: in vitro ADME; details: reference solution: 10% (w/v) Terbinafine in 60% (v/v) ethanol/water, no hydrophobin; average of 3
Experimental: Healthy nails for the permeability experiments were obtained from the Institute of Anatomy of the University of Basel and from the Institute of Anatomy of the University of Freiburg, Germany. Franz Diffusion Cells (SES GmbH—Analysesysteme, Bechenheim, Germany) with a diffusion area of 0.785 cm^2 were used. […] Subsequently, they were mounted in the diffusion cells in an appropriate manner. The acceptor chamber below the nail was filled with 5 ml PBS. The formulation (400 μl) was applied onto the nail. In order to keep the temperature in the system constant, the glass cells were tempered by a water jacket kept at 32°. The acceptor chambers were stirred with a magnetic stirrer at 400 rpm. The openings for the formulations and the extensions for taking samples were covered with Parafilm (film comprising paraffin wax and polyethene; American National Can Company, USA). A sample of 400 μl was taken from each cell twice a day and replaced with the same amount of PBS warmed to 32° C. […] The concentrations of the samples were measured with UV-spectrophotometry. Flux and permeation coefficients were calculated with the values after 48 hours, as in this time a steady state was obtained. […]

[3] = test system: cells in the skin model (EST-1000); assay type: cell-based; details: human, 48 h, 1 %
Experimental: Cytotoxicity of the test samples on the skin culture was determined by MTT-assay according to the instructions of the skin model provider. The viability of the cells in the skin model was not influenced by the solvents (50% ethanol, 0.002% SDS) as compared to cultures treated with PBS only. A viability of about 50% of that of the control cultures was observed when 1% caffeine or 1% caffeine/10 μg hydrophobin (SC3 or HFB II, respectively) were applied on the skin culture, showing that hydrophobin itself was not cytotoxic at a concentration of 200 μg/ml. The barrier function of the skin model is probably not influenced profoundly by the reduced viability of the cells, since the upper layer keratinocytes comprises non living cells.

[4] = assay type: in vitro ADME, human
Experimental: The penetration of caffeine through the skin was measured using a human epidermal skin model (EST-1000, Cell Systems, St. Katharinen, Germany). The in vitro model for human skin consists of a robust multilayer three-dimensional cell culture, which has been grown for 14 days and has skin-like properties. The cellular structure of EST-1000 resembles that of the natural epidermis showing a base membrane, proliferating keratinocytes and stratum corneum with an intact barrier function. The tissues were provided in cell culture inserts with a polycarbonate membrane with 0.63 cm^2 surface area and 0.4 μm pore size. The membranes were covered completely by the cells and show a matte white, dry surface after complete differentiation. The inserts were handled easily by the use of a sterile forceps. Upon delivery, the skin inserts were equilibrated by placing each insert into a well of a 6-well cell culture dish containing 1 ml of maintenance medium (provided by Cell Systems). After 4-12 hours of equilibration the test substance was applied on the dry surface of the skin model. Penetration of substances applied onto the surface of the skin culture through the skin model was measured by sampling the medium surrounding the insert and detecting the concentration of the test substance, here caffeine. […] Caffeine was purchased from Sigma and applied in a concentration of 10 mg/ml (1% w/v). […]

- Enhancement factor (EF) in 20% (v/v) EtOH/water [1]: 3.25
Molecule: C[S+](C)[O-] [DMSO, dimethylsulfoxide]

- Cumulated amount of Terbinafine penetrated through nail after 10 days [2]: ~12 mg/cm2
Molecule: CN(C/C=C/C#CC(C)(C)C)Cc1cccc2ccccc12 [Terbinafine]

Molecule: Cn1c(=O)c2c(ncn2C)n(C)c1=O [caffeine]
- Viability relative to control cultures (MTT) [3]: about 50%

B1: SC3: class I hydrophobin of 112 amino acids from Schizophyllum commune, accession P16933 (protein, UniProt P16933 25-136, looked up)
Class I hydrophobin SC3: GGHPGTTTPPVTTTVTVTTPPSTTTIAAGGTCTTGSLSCCNQVQSASSSPVTALLGLLGIVLSDLNVLVGISCSPLTVIGVGGSGCSAQTVCCENTQFNGLINIGCTPINIL
- Enhancement of penetration of caffeine (1% w/v) through in vitro model of human skin [4]: up to 21.5%
